Results reported in patent US12679878B2, “CRF2 receptor agonists and their use in therapy” (SANOFI, priority 2020, dated 2026).
Where two headings read alike, the source gives them in different places. Starred links: 1 amine or outer side, 2 acyl side, 3 side chain; linkers in the order of their positions; H or OH if unused. Non-standard residues stand in square brackets, D forms with d. Residues, ends and D or L forms follow the SMILES beside them. Groups on a side chain read outwards from the residue. *: point of attachment. C18 diacid = O=C(O)CCCCCCCCCCCCCCCCC(=O)*; γGlu = O=C(O)[C@H](CCC(=O)[*:2])N[*:1]; Palmitoyl = CCCCCCCCCCCCCCCC(=O)*; AEEA = NCCOCCOCC(=O)O; Aib = CC(C)(N)C(=O)O

Assays:
hCRF1 = molecular target: T1, hCRF1 (Homo sapiens, UniProt P34998); test: hCRF1 EC50 [nM]
T1 construct: host or cells: CHO-K1 clone 2
Description: (§1) Table printed on a drawing sheet, Fig. 3
Head of the field: hCRF1 EC50 [nM]
(§2) The patent's description of the figure: FIG. 3: Representative sequences from peptides according to the invention with an optimized stability profile, wherein K[sema] stands for K[gGlu-C(O)(CH2)14CH3]
(§3) First copying reader's note: Second half (positions 13-38, C-term and activity) of the first table; the rows follow the same order, so the four rows of Peptide Seq. 1 are Patent Sequence N° 130, 171, 172 and 173.
Where the first naming reader finds the target: head: hCRF1 EC50 [nM]

CRF2R = molecular target: T2, CRF2R (Homo sapiens, UniProt Q13324); test: EC50 [nM] CRF2R
T2 construct: expressed in transfected cells; host or cells: TeloHEAC
Description: as §1
Head of the field: EC50 [nM] CRF2R
as §2, §3
Where the first naming reader finds the target: head: EC50 [nM] CRF2R

CRF1R receptor = molecular target: T3, CRF1R receptor (Homo sapiens, UniProt P34998); test: cAMP activity at anti-target CRF1R, CRF1R-overexpression CHO cell line (Example 9); format: cell-based; settings: CRF1R-overexpression CHO cell line
T3 construct: host or cells: CHO-K1 clone 2
T3 sequence (P34998 24-415): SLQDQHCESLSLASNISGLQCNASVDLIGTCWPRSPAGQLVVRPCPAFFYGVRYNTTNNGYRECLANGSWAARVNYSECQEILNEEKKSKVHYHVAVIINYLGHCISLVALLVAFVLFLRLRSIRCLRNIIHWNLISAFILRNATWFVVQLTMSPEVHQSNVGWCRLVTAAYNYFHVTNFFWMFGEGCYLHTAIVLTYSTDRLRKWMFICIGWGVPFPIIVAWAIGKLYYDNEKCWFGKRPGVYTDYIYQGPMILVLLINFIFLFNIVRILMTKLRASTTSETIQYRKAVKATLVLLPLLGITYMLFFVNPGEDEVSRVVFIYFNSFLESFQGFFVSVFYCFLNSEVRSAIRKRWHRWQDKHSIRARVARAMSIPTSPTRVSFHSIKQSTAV
In short: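 cAMP accumulation was read by HTRF after 30 min at room temperature of compound treatment. Cells were cryopreserved CHO cells overexpressing CRF1R, plated at 2000/well in IBMX (2 mM)-containing HBSS/HEPES buffer with 0 or 0.1% HSA. Activity was normalized to 1000 nM UCN2 as 100%.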

endogenous human CRF2 = molecular target: T4, endogenous human CRF2 (Homo sapiens, UniProt Q13324); test: cAMP agonist effect in NCI-H82 cells expressing endogenous human CRF2 (Example 10); format: cell-based; settings: cAMP HTRF, 5 min activation
T4 construct: endogenous in cells; host or cells: NCI-H82
T4 sequence (Q13324 1-411): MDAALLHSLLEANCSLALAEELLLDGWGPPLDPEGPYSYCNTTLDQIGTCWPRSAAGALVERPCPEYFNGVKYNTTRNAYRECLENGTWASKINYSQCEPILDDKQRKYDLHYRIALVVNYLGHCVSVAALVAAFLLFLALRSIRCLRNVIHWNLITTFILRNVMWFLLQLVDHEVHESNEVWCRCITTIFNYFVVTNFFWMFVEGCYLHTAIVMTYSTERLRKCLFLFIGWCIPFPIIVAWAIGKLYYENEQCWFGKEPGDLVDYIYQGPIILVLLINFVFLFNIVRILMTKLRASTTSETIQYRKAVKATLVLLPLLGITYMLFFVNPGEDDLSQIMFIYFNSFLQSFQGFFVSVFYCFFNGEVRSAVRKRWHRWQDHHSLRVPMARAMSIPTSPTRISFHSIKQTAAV
Method: The agonist effect of the compounds was assessed in NCI-H82 cells expressing endogenous human CRF2.
NCI-H82 cells in suspension were plated in low-volume 384-well plates at a density of 30000 cells/well in 5 μl of test medium (RPMI+1 mM IBMX). The plates were briefly centrifuged at 800 rpm to allow the cell suspension to move to the bottom of the wells and then incubated for 2 hours at 37° C. in 5% CO2. 5 μl of test compounds at appropriate concentrations (10-11 to 3×10-7) diluted in test medium were then transferred in 384 wells plates. After 5 min of activation, the reaction was stopped by addition of HTRF revelation reagents with a multidrop dispenser. The two reagents were 5 μl/well of Anti-CAMP-cryptate diluted 20-fold in conjugate and lysis buffer and 5 μl/well of cAMP-D2 diluted 20-fold in conjugate and lysis buffer. After one-hour incubation at room temperature in the dark, the plates were read on a Clariostar apparatus.

[1] = Chemical stability, purity loss by UPLC-UV after 28 days at 40° C. vs 5° C., pH 4.5 acetate buffer (Example 12); format: physicochemical; settings: 28 days 40° C. vs 5° C.; pH 4.5, 20 mM acetate buffer; 300 μM
In short: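 300 μM compound (purity-corrected) in 20 mM acetate buffer, pH 4.5, stored 28 days at 5 and 40° C. Purity by UPLC-UV as compound peak area over total peak area. Value is the purity difference between 5° C. and 40° C. samples, relative to the 5° C. purity, in percent.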

human CRF2α receptor = molecular target: T5, human CRF2α receptor (Homo sapiens, UniProt Q13324); test: cAMP agonism at human CRF2 α receptor in TeloHEAC cells (Example 7); format: cell-based; settings: cAMP HTRF, TeloHEAC cells stably expressing human CRF2 α
T5 construct: expressed in transfected cells; host or cells: TeloHEAC
T5 sequence (Q13324 1-411): T4 sequence (Q13324 1-411)
In short: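 Thawed frozen stably transfected cells in HBSS/20 mM HEPES (0% or 0.1% HSA) plus 2 mM IBMX were exposed to compound at 2000 cells/well for 30 min at room temperature. Intracellular cAMP was read by HTRF (665/620 nm ratio) after 1 h lysis; EC50 was derived with 1000 nM urocortin 2 set as 100%.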

[2] = Physical stability, Thioflavin T fibrillation assay (Example 14); format: physicochemical; settings: Buffer B: 100 mM acetate buffer, pH 4.5, 2.7 mg/ml m-cresol; 3 mg/ml; 37° C. shaking
In short: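 Compounds at 3 mg/ml final in buffer were stressed at 37° C by repeated cycles of 10 s shaking at 960 rpm and 50 s rest. ThT fluorescence was read every 20 minutes in eight replicates, with fluorescence increase and lag time indicating fibrillation tendency.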

rat CRF2R α receptor = test: cAMP agonism at rat CRF2R α receptor in A7R5 rat aortic smooth muscle cells (Example 8); format: cell-based; settings: cAMP HTRF, A7R5 rat aortic smooth muscle cell line, 0% HSA
In short: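 Thawed cryopreserved A7R5 cells in HBSS/20 mM HEPES (0 or 0.1% HSA) with 2 mM IBMX, 2000 cells/well, were exposed to compound for 30 min at room temperature. cAMP was read by HTRF (665/620 nm ratio) after 1 h with lysis reagents. Activity was normalised to 1000 nM urocortin 2 as 100%, and EC50 was taken as the concentration giving 50% of maximal activation.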

EC50 (hCRF1)	EC50 (CRF2R)	EC50 (CRF1R receptor; 0% HSA)	Emax (CRF1R receptor; read-out: Emax (%))	EC50 (endogenous human CRF2)	Relative purity loss [%] [1]	EC50 (human CRF2α receptor; 0% HSA, read-out: EC50 [nM], 0% HSA)	EC50 (human CRF2α receptor; 0.1% HSA, read-out: EC50 [nM], 0.1% HSA)	Increase in FI (fluorescence intensity) [2]	Lag time [2]	EC50 (rat CRF2R α receptor)	Structure (SMILES)
91 nM	0.07 nM										CCCCCCCCCCCCCCCC(=O)N[C@@H](CCC(=O)NCCCC[C@H](NC(=O)[C@@H](NC(=O)[C@H](CCCCN)NC(=O)[C@@H](NC(=O)[C@@H]1CCCN1C(=O)[C@@H](NC(=O)[C@H](CC(=O)O)NC(=O)[C@H](CC(C)C)NC(=O)[C@H](CO)NC(=O)[C@H](CC(C)C)NC(=O)[C@@H](NC(=O)[C@@H](N)Cc1ccccc1)[C@@H](C)O)C(C)C)[C@@H](C)O)[C@@H](C)CC)C(=O)N[C@@H](CCC(N)=O)C(=O)N[C@@H](CCCCN)C(=O)N[C@@H](CC(C)C)C(=O)N[C@@H](CC(C)C)C(=O)N[C@@H](CCCCN)C(=O)N[C@@H](CCC(N)=O)C(=O)N[C@@H](CCC(=O)O)C(=O)N[C@@H](CCCCN)C(=O)N[C@@H](CCC(N)=O)C(=O)N[C@@H](CCCCN)C(=O)N[C@@H](CCCCN)C(=O)N[C@@H](CCC(N)=O)C(=O)N[C@@H](CCCNC(=N)N)C(=O)N[C@@H](CCC(N)=O)C(=O)N[C@@H](CCCCN)C(=O)N[C@@H](C)C(=O)N[C@@H](CCCCN)C(=O)N[C@H](C(=O)N[C@@H](CC(N)=O)C(=O)N[C@@H](CCCCN)C(=O)N[C@@H](CCC(N)=O)C(=O)N[C@H](C(=O)N[C@@H](CC(C)C)C(=O)N[C@@H](CCC(=O)O)C(=O)N[C@@H](CCC(N)=O)C(=O)N[C@H](C(N)=O)C(C)C)[C@@H](C)CC)[C@@H](C)O)C(=O)O [SEQ ID NO: 10] (H-FTLSLDVPTKIK([γGlu-Palmitoyl])QKLLKQEKQKKQRQKAKTNKQILEQV-NH2)
		> 1000 nM	20.3%	4.3 nM	4.25%	0.05 nM	2.11 nM	No	>45 h	0.13 nM	CC[C@H](C)[C@H](N)C(=O)N[C@H](C(=O)N[C@@H](CC(C)C)C(=O)N[C@@H](CO)C(=O)N[C@@H](CC(C)C)C(=O)N[C@@H](CC(=O)O)C(=O)N[C@@H](C(=O)N1CCC[C@H]1C(=O)N[C@H](C(=O)N[C@@H](CCCCN)C(=O)N[C@@H](CC(C)C)C(=O)N[C@@H](CCCCNC(=O)COCCOCCNC(=O)COCCOCCNC(=O)CC[C@H](NC(=O)CCCCCCCCCCCCCCCCC(=O)O)C(=O)O)C(=O)N[C@@H](CCC(N)=O)C(=O)N[C@H](C(=O)N[C@@H](CC(C)C)C(=O)N[C@@H](CC(C)C)C(=O)N[C@@H](CCCCN)C(=O)N[C@@H](CCC(N)=O)C(=O)N[C@@H](CCC(=O)O)C(=O)N[C@@H](CCCNC(=N)N)C(=O)N[C@@H](CCC(N)=O)C(=O)N[C@@H](CCCCN)C(=O)NC(C)(C)C(=O)N[C@@H](CCC(N)=O)C(=O)N[C@@H](CCCNC(=N)N)C(=O)N[C@@H](CCC(=O)O)C(=O)N[C@@H](CCC(N)=O)C(=O)N[C@@H](C)C(=O)N[C@@H](CCC(=O)O)C(=O)N[C@@H](CCCCN)C(=O)N[C@@H](CC(N)=O)C(=O)N[C@@H](CCCCN)C(=O)N[C@@H](CCC(N)=O)C(=O)N[C@H](C(=O)N[C@@H](CC(C)C)C(=O)N[C@@H](C)C(=O)N[C@@H](CCC(N)=O)C(=O)N[C@H](C(N)=O)C(C)C)[C@@H](C)CC)[C@@H](C)CC)[C@@H](C)CC)C(C)C)C(C)C [compound 130] (H-IVLSLD[dV]PIKLK([AEEA-AEEA-γGlu-C18 diacid])QILLKQERQK[Aib]QREQAEKNKQILAQV-NH2; N-terminus assumed)
